# “Also recorded” adds a separate entry of the source.
# Key:
# [1] = Rat liver microsome stability (rlm t1/2); type: in vitro ADME; conditions: rat liver microsomes
# [2] = Human liver microsome stability (hlm t1/2); type: in vitro ADME; conditions: human liver microsomes
# human FAAH (hFAAH) = biological target: T1, human FAAH (hFAAH) (Homo sapiens, UniProt O00519); test: Enzyme assay: inhibition of human FAAH (lysate of hFAAH-transfected COS-7 cells), 14C-oleamide hydrolysis; type: biochemical; conditions: for reduction in activity against the human enzyme versus rat FAAH: hFAAH vs rFAAH, active (S)-enantiomers
# T1 construct: The full-length human FAAH (hFAAH) was expressed in COS-7 cells; expressed in transfected cells; host or cells: COS-7 (transiently transfected with human FAAH cDNA)
# T1 sequence (O00519 1-579): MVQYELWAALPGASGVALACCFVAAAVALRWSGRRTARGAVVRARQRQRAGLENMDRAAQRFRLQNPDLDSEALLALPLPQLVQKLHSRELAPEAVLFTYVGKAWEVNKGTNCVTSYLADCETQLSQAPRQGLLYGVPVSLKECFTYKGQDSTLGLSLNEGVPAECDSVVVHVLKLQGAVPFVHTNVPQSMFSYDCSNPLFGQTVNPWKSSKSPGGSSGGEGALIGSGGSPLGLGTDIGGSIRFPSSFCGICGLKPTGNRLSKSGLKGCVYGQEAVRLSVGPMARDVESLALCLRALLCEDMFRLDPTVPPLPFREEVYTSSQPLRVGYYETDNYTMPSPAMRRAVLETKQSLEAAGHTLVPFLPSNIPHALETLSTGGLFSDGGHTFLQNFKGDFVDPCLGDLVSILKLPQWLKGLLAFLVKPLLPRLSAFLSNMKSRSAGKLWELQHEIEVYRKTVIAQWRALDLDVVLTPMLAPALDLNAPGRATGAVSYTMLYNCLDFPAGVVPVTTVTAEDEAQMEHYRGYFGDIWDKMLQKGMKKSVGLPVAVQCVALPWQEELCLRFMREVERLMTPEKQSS
# Protocol: Enzyme assays were performed at 20-23° C. with purified recombinant rat FAAH expressed in Escherichia coli or with solubilized COS-7 membrane extracts from cells transiently transfected with human FAAH cDNA (where specifically indicated) in a buffer of 125 mM Tris/1 mM EDTA/0.2% glycerol/0.02% Triton X-100/0.4 mM Hepes, pH 9.0.
# ^14C-labeled oleamide was prepared from ^14C-labeled oleic acid. The truncated rat FAAH (rFAAH) was expressed in E. coli and purified. The purified recombinant rFAAH was used in the inhibition assays unless otherwise indicated. The full-length human FAAH (hFAAH) was expressed in COS-7 cells as described, and the lysate of hFAAH-transfected COS-7 cells was used in the inhibition assays where explicitly indicated.
# The inhibition assays were performed as follows. […] The enzyme reaction was terminated by transferring 20 μL of the reaction mixture to 500 μL of 0.1 N HCl at three different time points. The ^14C-labeled oleamide (substrate) and oleic acid (product) were extracted with EtOAc and analyzed by TLC as detailed. The Ki of the inhibitor was calculated using a Dixon plot as described (standard deviations are provided in the Supporting Information tables).
# [3] = tested on: endogenous levels of FAAH substrates AEA, PEA, OEA and of 2-AG, AA; test: In vivo pharmacodynamic studies: brain and liver lipid levels after inhibitor treatment (LC-MS); set-up: species or system mouse (C57BL/6J)
# Protocol: This includes monitoring the effects of the inhibitors on the endogenous levels of the FAAH substrates anandamide (AEA, N-arachidonoyl ethanolamine), N-oleoyl ethanolamine (OEA), and N-palmitoyl ethanolamine (PEA), as well as the key lipids 2-arachidonoylglycerol (2-AG) and arachidonic acid (AA) that are not endogenous substrates for FAAH.
# Inhibitors were prepared as a saline-emulphor emulsion for intraperitoneal (i.p.) administration by vortexing, sonicating, and gently heating neat compound directly into an 18:1:1 v/v/v solution of saline:ethanol:emulphor, or as a homogeneous PEG solution for oral administration (p.o.) by vortexing, sonicating, and gently heating neat compound directly into PEG300 (Fluka). Male C57BL/6J mice (<6 months old, 20-28 g) were administered inhibitors in saline-emulphor emulsion or an 18:1:1 v/v/v saline:emulphor:ethanol vehicle i.p. at a volume of 10 μL/g weight, or alternatively inhibitors in PEG300 or a PEG300 vehicle p.o. at a volume of 4 μL/g weight. After the indicated amount of time, mice were anesthetized with isofluorane and killed by decapitation. Total brains (˜400 mg) and a portion of the liver (˜100 mg) were removed and flash frozen in liquid N2.
# Tissue was weighed and subsequently Dounce homogenized in 2:1:1 v/v/v CHCl3:MeOH:Tris pH 8.0 (8 mL) containing standards for lipids (50 pmol d4-PEA, 2 pmol d4-AEA, 0.5 nmol ds-2-AG, and 10 nmol pentadecanoic acid). The mixture was vortexed and then centrifuged (1,400×g, 10 min). The organic layer was removed, dried under a stream of N2, resolubilized in 2:1 v/v CHCl3:MeOH (120 μL), and 10 μL of this resolubilized lipid was injected onto an Agilent G6410B QQQ instrument. […] Mobile phase A was composed of a 95:5 v/v H2O:MeOH, and mobile phase B was composed of a 65:35:5 v/v/v i-PrOH:MeOH:H2O. 0.1% Formic acid or 0.1% ammonium hydroxide was included to assist in ion formation in positive and negative ionization mode, respectively. The flow rate for each run started at 0.1 mL/min with 0% B. At 5 min, the solvent was immediately changed to 60% B with a flow rate of 0.4 mL/min and increased linearly to 100% B over 10 min. […] MS analysis was performed with an electrospray ionization (ESI) source. […] For negative polarity, the analysis was performed in MS2 scan mode from 100-1000 m/z. The capillary was set to 4 kV, the fragmentor was set to 100 V, and the delta EMV was set to 0. Lipids were quantified by measuring the area under the peak in comparison to the standards.
# [4] = tested on: catalepsy, hypothermia, hypomotility (THC-like effects); test: Cannabimimetic side effects after oral administration; type: in vivo; conditions: oral administration 50 mg/kg
# [5] = biological target: T2, recombinant rat FAAH (rFAAH) (Rattus norvegicus, UniProt P97612); test: Enzyme assay: inhibition of purified recombinant rat FAAH, 14C-oleamide hydrolysis, Ki by Dixon plot; type: biochemical
# T2 construct: The truncated rat FAAH (rFAAH) was expressed in E. coli and purified; made in house; host or cells: Escherichia coli
# T2 sequence (P97612 30-579 limits assumed): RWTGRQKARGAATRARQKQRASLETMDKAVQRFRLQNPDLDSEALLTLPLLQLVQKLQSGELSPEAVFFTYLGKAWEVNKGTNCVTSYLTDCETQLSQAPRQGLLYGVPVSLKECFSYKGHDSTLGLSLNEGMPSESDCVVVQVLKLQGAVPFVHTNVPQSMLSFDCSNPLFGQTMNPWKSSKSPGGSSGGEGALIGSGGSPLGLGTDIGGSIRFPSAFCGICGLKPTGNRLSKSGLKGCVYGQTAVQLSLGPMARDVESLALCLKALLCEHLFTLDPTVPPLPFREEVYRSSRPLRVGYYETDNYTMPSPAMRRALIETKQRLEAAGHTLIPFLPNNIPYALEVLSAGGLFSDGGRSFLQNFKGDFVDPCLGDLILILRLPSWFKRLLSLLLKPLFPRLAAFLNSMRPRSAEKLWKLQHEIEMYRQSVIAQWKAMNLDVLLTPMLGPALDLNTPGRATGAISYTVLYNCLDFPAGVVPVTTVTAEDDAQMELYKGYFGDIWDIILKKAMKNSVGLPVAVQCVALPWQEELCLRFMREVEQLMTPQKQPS
# Method in brief: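 Hydrolysis of 14C-oleamide at 20-23° C by purified truncated rat FAAH expressed in E. coli or by lysate of COS-7 cells transfected with full-length human FAAH, in 125 mM Tris/1 mM EDTA/0.2% glycerol/0.02% Triton X-100/0.4 mM Hepes, pH 9.0. Reaction stopped in 0.1 N HCl at three time points; substrate and product separated by TLC; Ki from Dixon plot.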
# [6] = tested on: mice with CCI neuropathic pain; test: Chronic constriction injury (CCI) of the sciatic nerve: mechanical (von Frey) and cold (acetone) allodynia; type: in vivo, mouse (C57BL/6); conditions: 50 mg/kg p.o.
# Protocol: Surgery was performed as follows. Briefly, the right hind leg of male C57BL/6 mice was shaved and swabbed with betadine solution and ethanol. Posterior to the femur, an incision was made and the sciatic nerve was visualized and isolated, following muscle separation. The nerve was ligated twice with 5-0 (1.0 metric) black silk braided suture (Surgical Specialties Corporation, Reading, Pa.). The surrounding muscle and skin were then sutured with 6-0 nylon. Mice were recovered in a heated cage and observed for approximately 2 h before being returned to the vivarium.
# Allodynia was initially tested 10 days after surgery. Male C57BL/6 mice were habituated to the test apparatus for 2 h on the 2 days prior to testing. On the test day, the mice were brought into the test room, weighed, and allowed to acclimate for at least 1 h before the start of the experiment. […] Mechanical (von Frey) and cold (acetone-induced) allodynia were tested at 1, 3, 6, and 9 h post drug administration. Testing was carried out by a separate observer who was blinded to treatment conditions. Mechanical allodynia was assessed with von Frey filaments (North Coast Medical, Morgan Hill, Calif.), using the “up-down” method. Each hind paw was stimulated 5 times per filament (0.16-6.0 g), starting with the 0.6 g filament and increasing weight. Paw clutching or lifting, in response to three or more stimulations, was coded as a positive response. Once a positive response was detected, sequentially lighter-weight filaments were used to assess paw withdrawal threshold. Approximately 30 min after completing the von Frey test, cold allodynia was tested by propelling 10 μL of acetone (Fisher Bioscience) via air burst, from a 200 μL pipette (Rainin Instruments, Oakland, Calif.) onto the plantar surface of each hind paw. Total time lifting or clutching each paw was recorded, with a maximum time of 20 s.
# Data Analyses: Behavioral data were analyzed using a two-way mixed factorial analysis of variance (ANOVA) for each paw, with drug treatment as the between subjects measure, and time as the within subjects measure. Follow-up comparisons were made using the Bonferroni test. All animals were included in the analyses. Differences between groups were considered statistically significant at p<0.05.
# [7] = Table 6, 30 mg/kg i.p., 1 h, single mouse
# [8] = Table 6, 30 mg/kg i.p., 1 h, single mouse, vs vehicle
# [9] = 50 mg/kg p.o., time course up to 9 h
# [10] = Table 7, i.p. (30 mg/kg), 3 mice per group
# [11] = Table 7, oral (50 mg/kg), 3 mice per group
structure (smiles),measurement,setting,value
"O=C(CCCCCCc1ccccc1)c1ncc(-c2ccccn2)o1 [Compound 2, reference compound]",half-life,[1],2 to 4 min
same,half-life,[2],2 to 4 min
same,reduction in activity against the human enzyme versus rat FAAH,human FAAH (hFAAH),no significant distinction
same,Brain AEA,[3]; [7],38 pmol/g
same,Brain PEA,[3]; [7],540 pmol/g
same,Liver 2-AG,[3]; [7],0.28 pmol/g
same,Liver AEA,[3]; [7],14 pmol/g
same,Liver PEA,[3]; [7],208 pmol/g
same,Brain AEA (fold increase),[3]; [8],4.8 fold increase
same,Brain PEA (fold increase),[3]; [8],5.0 fold increase
same,Liver 2-AG (fold increase),[3]; [8],0.9 fold increase
same,Liver AEA (fold increase),[3]; [8],7 fold increase
same,Liver PEA (fold increase),[3]; [8],1.6 fold increase
same,increase in brain levels of anandamide,"[3]; p.o. 50 mg/kg, 1 h",11 fold
"O=C(c1ncc(-c2ccccn2)o1)C1CCc2cc(Oc3ccccc3)ccc2C1 (stereo not shown) [Compound 12, (6-Phenoxy-1,2,3,4-tetrahydronaphthalen-2-yl)(5-(pyridin-2-yl)oxazol-2-yl)methanone]",cannabimimetic side effects,[4],"did not produce catalepsy, hypothermia, or hypomotility"
same,mode of inhibition (Lineweaver-Burk analysis),[5],"reversible, competitive inhibitor; also recorded: competitive, reversible inhibition"
same,Ki,"[5]; Ki, rFAAH, Table 5, active (S)-enantiomers",4.4 nM
same,duration of effect on cold allodynia,[6],> 9 h
same,duration of effect on mechanical allodynia,[6],> 6 h
same,mechanical or cold allodynia in control (contralateral) paws,[6],no effect
same,duration of attenuation of neuropathic pain,[6]; FIG. 9 legend,up to 9 hours
same,Ki,"human FAAH (hFAAH); Table 5, active (S)-enantiomers",5.8 nM
same,reduction in activity against the human enzyme versus rat FAAH,human FAAH (hFAAH),no significant distinction
same,"duration of elevation of brain N-acylethanolamines (AEA, PEA, OEA)",[3]; [9],maintained over the 9 h time course
same,time of peak brain levels of anandamide,[3]; [9],1.5 to 3 h
same,Brain 2-AG,[3]; [7],13 pmol/g
same,Brain AA,[3]; [7],170 pmol/g
same,Brain AEA,[3]; [7],42 pmol/g
same,Brain PEA,[3]; [7],785 pmol/g
same,Liver 2-AG,[3]; [7],0.25 pmol/g
same,Liver AEA,[3]; [7],12 pmol/g
same,Liver PEA,[3]; [7],472 pmol/g
same,Brain 2-AG,[3]; [10],7.0 pmol/g
same,Brain AEA,[3]; [10],28.6 pmol/g
same,Brain PEA,[3]; [10],599 pmol/g
same,Brain 2-AG,[3]; [11],11.5 pmol/g
same,Brain AEA,[3]; [11],43.2 pmol/g
same,Brain PEA,[3]; [11],772 pmol/g
same,increases in brain levels of N-palmitoyl ethanolamine and N-oleoyl ethanolamine,"[3]; p.o. 10, 25 and 50 mg/kg, 1 h",5.5-7.8 fold
same,increase in brain levels of anandamide,"[3]; p.o. 25-50 mg/kg, 1 h",12-13 fold

# From patent publication US9504675B2, “Alpha-ketoheterocycles and methods of making and using” (The Scripps Research Institute, priority 2011, dated 2016)
